Earlier results, collected in US20250144118A1, “MIFEPRISTONE ORAL FORM FOR ITS USE IN CERVIX RIPENING AND LABOUR INDUCTION” (NORDIC GROUP B.V., priority 2020, published 2025).

What was measured:
[1] = test system: cervix of pregnant women beyond 41 weeks' gestation; details: 200 mg mifepristone orally, findings not statistically significant
[2] = test system: cervix of women in term pregnancies; details: 50, 100, 200, 400 and 600 mg of mifepristone; regardless of the dose
[3] = test system: cervix of women in full-term pregnancy; details: clinical trial

## CC#C[C@]1(O)CC[C@H]2[C@@H]3CCC4=CC(=O)CCC4=C3[C@@H](c3ccc(N(C)C)cc3)C[C@@]21C [mifepristone, Mifepristone]
[1]
  Bishop score after 24 hours vs. placebo: improve the Bishop score after 24 hours vs. placebo
[1]; vs. placebo
  use of prostaglandin: reduce the use of prostaglandin
[2]
  efficiency vs placebo: no more effective than placebo
[3]
  induction of cervical ripening and labour: efficient on inducing cervical ripening and labour
